Results: patent publication US12624023B2, “Sulfonylurea derivatives and uses thereof” (NodThera Limited, priority 2019, dated 2026)

Experiments:
[1] = tested on: IL-1β release upon NLRP3 activation in human whole blood; experiment: Whole blood (WB) assay (IL-1β release, LPS priming + ATP stimulation, HTRF); format: cell-based; details: heparin, diluted 9:5 with media, LPS 1 μg/ml 3 h, compound 30 min, ATP 5 mM 1 h, IL-1β by HTRF
In short: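 Heparinised human whole blood, diluted 9:5 in medium, was primed with LPS (1 μg/ml final) for 3 h. Compound was then added for 30 min, followed by ATP (5 mM final) for 1 h. Secreted IL-1β was measured in the media by HTRF (655/620 nm).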

[2] = tested on: IL-1β release upon NLRP3 activation in peripheral blood mononuclear cells (PBMC); experiment: PBMC IC50 determination assay (IL-1β release, LPS priming + ATP stimulation, HTRF); format: cell-based; details: PBMC from buffy coats; LPS 1 μg/ml 3 h, compound 30 min, ATP 5 mM 1 h; IL-1β by HTRF
In short: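 Buffy-coat PBMC were primed with LPS (1 μg/ml) for 3 h, given compound for 30 min, then stimulated with 5 mM ATP for 1 h. IL-1β released into the medium was quantified by HTRF, reading 655 and 620 nm.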

CCc1cc(NC(=O)NS(=O)(=O)N(c2cnn(C)c2)C2CCCN(C)C2)c(CC)s1 (stereo not shown) [Compound 13, 3-(2,5-Diethylthiophen-3-yl)-1-[(1-methyl-1H-pyrazol-4-yl)(1-methylpiperidin-3-yl)sulfamoyl]urea]
IC50 [1]: < 1000 nM
IC50 [2]: < 100 nM

CN1CCCC(N(c2cnn(C)c2)S(=O)(=O)NC(=O)Nc2c(C(C)(C)C)sc3c2CCC3)C1 (stereo not shown) [Compound 122, 3-{2-Tert-butyl-4H,5H,6H-cyclopenta[b]thiophen-3-yl}-1-[(1-methyl-1H-pyrazol-4-yl)(1-methylpiperidin-3-yl)sulfamoyl]urea]
IC50 [1]: 10000 to 20000 nM
IC50 [2]: 500 to 1000 nM

CC(C)c1cc(NC(=O)NS(=O)(=O)N(c2cnn(C)c2)[C@@H]2CCCN(C)C2)c(C(C)C)s1 [Compound 54, 3-[2,5-Bis(propan-2-yl)thiophen-3-yl]-1-[(1-methyl-1H-pyrazol-4-yl)[(3R)-1-methylpiperidin-3-yl]sulfamoyl]urea]
IC50 [1]: < 1000 nM
IC50 [2]: < 100 nM

CC(C)c1cc(NC(=O)NS(=O)(=O)N(c2cnn(C)c2)C2CCN(C)CC2)c(C(C)C)s1 [Compound 43, 3-[2,5-Bis(propan-2-yl)thiophen-3-yl]-1-[(1-methyl-1H-pyrazol-4-yl)(1-methyl-piperidin-4-yl)sulfamoyl]urea]
IC50 [1]: < 1000 nM
IC50 [2]: < 100 nM

CC(C)c1cc(NC(=O)NS(=O)(=O)N(c2cnn(C)c2)C2CCCN(C)C2)c(Cl)s1 (stereo not shown) [Compound 50, 3-[2-Chloro-5-(propan-2-yl)thiophen-3-yl]-1-[(1-methyl-1H-pyrazol-4-yl)(1-methylpiperidin-3-yl)sulfamoyl]urea]
IC50 [1]: 1000 to 3000 nM
IC50 [2]: 500 to 1000 nM

CC(C)c1sc(Cl)cc1NC(=O)NS(=O)(=O)N(c1cnn(C)c1)[C@H]1CCN(C)C1 [Compound 128, 3-[5-Chloro-2-(propan-2-yl)thiophen-3-yl]-1-[(1-methyl-1H-pyrazol-4-yl)-[(3S)-1-methylpyrrolidin-3-yl]sulfamoyl]urea]
IC50 [1]: < 1000 nM
IC50 [2]: < 100 nM

Cc1cc(NC(=O)NS(=O)(=O)N(c2cnn(C3CC3)c2)[C@H]2CCCN(C)C2)c(C(C)C)s1 [Compound 103, 1-[(1-Cyclopropyl-1H-pyrazol-4-yl)[(3S)-1-methylpiperidin-3-yl]sulfamoyl]-3-[5-methyl-2-(propan-2-yl)thiophen-3-yl]urea]
IC50 [1]: < 1000 nM
IC50 [2]: < 100 nM

CC(C)c1sc(Cl)cc1NC(=O)NS(=O)(=O)N(c1cnn(C)c1)[C@@H]1CCN(C)C1 [Compound 129, 3-[5-Chloro-2-(propan-2-yl)thiophen-3-yl]-1-[(1-methyl-1H-pyrazol-4-yl)-[(3R)-1-methylpyrrolidin-3-yl]sulfamoyl]urea]
IC50 [1]: < 1000 nM
IC50 [2]: < 100 nM

CCc1cc(NC(=O)NS(=O)(=O)N(c2cnn(C)c2)C2CCOCC2)c(CC)s1 [Compound 4, 3-(2,5-Diethylthiophen-3-yl)-1-[(1-methyl-1H-pyrazol-4-yl)(oxan-4-yl)sulfamoyl]urea]
IC50 [1]: 10000 to 20000 nM
IC50 [2]: 1000 to 5000 nM

Cc1cc(NC(=O)NS(=O)(=O)N(c2cnn(C)c2)[C@H]2CCN(C)C2)c(C(C)C)s1 [Compound 127, 1-[(1-Methyl-1H-pyrazol-4-yl)[(3S)-1-methylpyrrolidin-3-yl]sulfamoyl]-3-[5-methyl-2-(propan-2-yl)thiophen-3-yl]urea]
IC50 [1]: < 1000 nM
IC50 [2]: < 100 nM

CCc1sc(C(C)C)cc1NC(=O)NS(=O)(=O)N(c1cnn(C)c1)[C@H]1CCCN(C)C1 [Compound 89, 3-[2-Ethyl-5-(propan-2-yl)thiophen-3-yl]-1-[(1-methyl-1H-pyrazol-4-yl)[(3S)-1-methylpiperidin-3-yl]sulfamoyl]urea]
IC50 [1]: 1000 to 3000 nM
IC50 [2]: < 100 nM

CCc1cc(NC(=O)NS(=O)(=O)N(c2cnn(C)c2)[C@@H]2CCCN(C)C2)c(C(C)C)s1 [Compound 61, 3-[5-Ethyl-2-(propan-2-yl)thiophen-3-yl]-1-[(1-methyl-1H-pyrazol-4-yl)[(3R)-1-methylpiperidin-3-yl]sulfamoyl]urea]
IC50 [1]: 3000 to 10000 nM
IC50 [2]: < 100 nM

Cc1nsc(C(C)C)c1NC(=O)NS(=O)(=O)N(c1cnn(C)c1)C1CCCN(C)C1 (stereo not shown) [Compound 124, 1-[(1-Methyl-1H-pyrazol-4-yl)(1-methylpiperidin-3-yl)sulfamoyl]-3-[3-methyl-5-(propan-2-yl)-1,2-thiazol-4-yl]urea]
IC50 [1]: > 20000 nM
IC50 [2]: > 10000 nM

Cc1sc2c(c1NC(=O)NS(=O)(=O)N(c1cnn(C3CC3)c1)C1CCCN(C)C1)CCC2 (stereo not shown) [Compound 118, 1-[(1-Cyclopropyl-1H-pyrazol-4-yl)(1-methylpiperidin-3-yl)sulfamoyl]-3-{2-methyl-4H,5H,6H-cyclopenta[b]thiophen-3-yl}urea]
IC50 [1]: < 1000 nM
IC50 [2]: < 100 nM

CCc1cc(NC(=O)NS(=O)(=O)N(C[C@@H]2C[C@@H](F)CN2C)c2cnn(C)c2)c(CC)o1 [Compound 62, 1-(2,5-Diethylfuran-3-yl)-3-({[(2S,4R)-4-fluoro-1-methylpyrrolidin-2-yl]methyl}(1-methyl-1H-pyrazol-4-yl)sulfamoyl)urea]
IC50 [1]: 1000 to 3000 nM
IC50 [2]: 500 to 1000 nM

Cc1sc2c(c1NC(=O)NS(=O)(=O)N(c1cnn(C)c1)C1CCCN(C)C1)CCCC2 (stereo not shown) [Compound 97, 1-[(1-Methyl-1H-pyrazol-4-yl)(1-methylpiperidin-3-yl)sulfamoyl]-3-(2-methyl-4,5,6,7-tetrahydro-1-benzothiophen-3-yl)urea]
IC50 [1]: < 1000 nM
IC50 [2]: 100 to 500 nM

CC(C)c1cc(NC(=O)NS(=O)(=O)N(c2cnn(C)c2)C2CCCN(C)C2)c(C2CC2)s1 (stereo not shown) [Compound 38, 3-[2-Cyclopropyl-5-(propan-2-yl)thiophen-3-yl]-1-[(1-methyl-1H-pyrazol-4-yl)(1-methylpiperidin-3-yl)sulfamoyl]urea]
IC50 [1]: 1000 to 3000 nM
IC50 [2]: < 100 nM

CC(C)c1cc(NC(=O)NS(=O)(=O)N(c2cnn(C)c2)[C@H]2CCCN(C)C2)c(C(C)C)s1 [Compound 56, 3-[2,5-Bis(propan-2-yl)thiophen-3-yl]-1-[(1-methyl-1H-pyrazol-4-yl)[(3S)-1-methylpiperidin-3-yl]sulfamoyl]urea]
IC50 [1]: < 1000 nM
IC50 [2]: < 100 nM

Cc1cc(C)c(NC(=O)NS(=O)(=O)N(c2cnn(C)c2)C2CCCN(C)C2)s1 (stereo not shown) [Compound 10, 3-(3,5-Dimethylthiophen-2-yl)-1-[(1-methyl-1H-pyrazol-4-yl)(1-methyl-piperidin-3-yl)sulfamoyl]urea]
IC50 [1]: 10000 to 20000 nM
IC50 [2]: 1000 to 5000 nM

CC(C)c1cc(NC(=O)NS(=O)(=O)N(c2cnn(C3CC3)c2)[C@H]2CCCN(C)C2)c(C(C)C)s1 [Compound 91, 3-[2,5-Bis(propan-2-yl)thiophen-3-yl]-1-[(1-cyclopropyl-1H-pyrazol-4-yl)[(3S)-1-methylpiperidin-3-yl]sulfamoyl]urea]
IC50 [1]: < 1000 nM
IC50 [2]: < 100 nM

CCc1cc(NC(=O)NS(=O)(=O)N(c2cnn(C)c2)[C@H]2CCCN(C)C2)c(C(C)C)s1 [Compound 88, 3-[5-Ethyl-2-(propan-2-yl)thiophen-3-yl]-1-[(1-methyl-1H-pyrazol-4-yl)[(3S)-1-methylpiperidin-3-yl]sulfamoyl]urea]
IC50 [1]: < 1000 nM
IC50 [2]: < 100 nM

Cc1cc(NC(=O)NS(=O)(=O)N(c2cnn(C)c2F)C2CCCN(C)C2)c(C(C)C)s1 (stereo not shown) [Compound 115, 1-[(5-Fluoro-1-methyl-1H-pyrazol-4-yl)(1-methylpiperidin-3-yl)sulfamoyl]-3-[5-methyl-2-(propan-2-yl)thiophen-3-yl]urea]
IC50 [1]: < 1000 nM
IC50 [2]: < 100 nM

CCc1cc(NC(=O)NS(=O)(=O)N(C2CCOC2)C2CCCN(C)C2)c(CC)s1 (stereo not shown) [Compound 69, 3-(2,5-Diethylthiophen-3-yl)-1-[(1-methylpiperidin-3-yl)(oxolan-3-yl)-sulfamoyl]urea]
IC50 [1]: > 20000 nM
IC50 [2]: > 10000 nM

CCc1oc2c(c1NC(=O)NS(=O)(=O)N(c1cnn(C)c1)C1CCCN(C)C1)CCCC2 (stereo not shown) [Compound 94, 3-(2-Ethyl-4,5,6,7-tetrahydro-1-benzofuran-3-yl)-1-[(1-methyl-1H-pyrazol-4-yl)(1-methylpiperidin-3-yl)sulfamoyl]urea]
IC50 [1]: < 1000 nM
IC50 [2]: 100 to 500 nM

CCc1cc(NC(=O)NS(=O)(=O)N(c2cnn(C)c2)C2CCOCC2)c(CC)o1 [Compound 65, 3-(2,5-Diethylfuran-3-yl)-1-[(1-methyl-1H-pyrazol-4-yl)(oxan-4-yl)sulfamoyl]-urea]
IC50 [1]: > 20000 nM
IC50 [2]: 1000 to 5000 nM

CC(C)c1cc(NC(=O)NS(=O)(=O)N(C[C@@H]2C[C@@H](F)CN2C)c2cnn(C)c2)c(C(C)C)s1 [Compound 53]
IC50 [1]: 1000 to 3000 nM
IC50 [2]: < 100 nM

Cc1cc(NC(=O)NS(=O)(=O)N(c2cnn(C3CC3)c2F)C2CCCN(C)C2)c(C(C)C)s1 (stereo not shown) [Compound 114, 1-[(1-Cyclopropyl-5-fluoro-1H-pyrazol-4-yl)(1-methylpiperidin-3-yl)sulfamoyl]-3-[5-methyl-2-(propan-2-yl)thiophen-3-yl]urea]
IC50 [1]: < 1000 nM
IC50 [2]: < 100 nM

CC(C)c1sc(Cl)cc1NC(=O)NS(=O)(=O)N(c1cnn(C)c1)C1CCN(C)CC1 [Compound 123, 3-[5-Chloro-2-(propan-2-yl)thiophen-3-yl]-1-[(1-methyl-1H-pyrazol-4-yl)(1-methylpiperidin-4-yl)sulfamoyl]urea]
IC50 [1]: 1000 to 3000 nM
IC50 [2]: < 100 nM

CC(C)c1cc(NC(=O)NS(=O)(=O)N(c2cnn(C)c2)[C@@H]2C[C@H](F)CN(C)C2)c(C(C)C)s1 [Compound 76, 3-[2,5-Bis(propan-2-yl)thiophen-3-yl]-1-{[(3R,5S)-5-fluoro-1-methylpiperidin-3-yl](1-methyl-1H-pyrazol-4-yl)sulfamoyl}urea]
IC50 [1]: 3000 to 10000 nM
IC50 [2]: 100 to 500 nM
